We go through one compound from PMC11793105, “A kalihinol analog disrupts apicoplast function and vesicular trafficking in P. falciparum malaria” (Science (New York, N.Y.), 2024).

For data set [1], the system named is P. cynomolgi M/B strain parasites. As to the kind of experiment: P. cynomolgi M/B strain drug assay (Hoechst flow cytometry). Type of data set: cell-based. The note with it: Plasmodium cynomolgi, harvested 60 hours after initial dosing. From the text:
Detailed information on materials and methods is available in the supplementary materials. […] P. knowlesi assays were quantitatively measured by flow cytometry using SYBR Green I and Mitrotracker Deep Red, as previously described ([84], [85]), on a Beckman Coulter CytoFLEX. Nonhuman primate infections were required to generate P. cynomolgi M/B strain parasites for in vitro testing ([82], [86]). […]
reduction in weight, aggressive or unexpected animal behavior, animals are immediately euthanized with CO2. If no toxic effects are observed, mice are euthanized with CO2 at the end of […]
After infection, parasitemia was monitored daily by thick and thin blood films as previously described in Joyner et al. 2019 (86). […]
dosing. […] The experiment was repeated twice, and each concentration was assessed in […]
Data analysis The percentage of parasitized erythrocytes was determined by enumerating the number of Hoechst positive events out of the total erythrocytes after excluding non-single cells by forward and side scatter. The percent survival was calculated by averaging the parasitemia in the triplicates for each condition and then dividing by the parasitemia observed in the wells that did not receive drug treatment. The IC50 was then calculated using GraphPad Prism 9 (GraphPad […]
In general terms: Flow cytometry measures light scatter and fluorescence of single cells or particles in a stream.

For a further data set, the system named is HeLa. Put plainly: Human cell line activity, HeLa. Type of data set: cell-based. The note with it: read-out: IC50 (µM) HeLa.
The subject of another data set is THP1. Put plainly: Human cell line activity, THP1. Type of data set: cell-based. The note with it: THP-1, read-out: IC50 (µM) THP1.
The nature of data set [2]: Pharmacokinetics after oral administration to P. falciparum-infected mice (Table S10). Type of data set: in vivo, P. falciparum-infected SCID mice. The note with it: for Cmax: 50mg/kg oral in 1% Methylcellulose; for AUC(0-inf): read-out: AUCINF_obs. Here is the method:
An Acquity ultra-performance liquid chromatography (UPLC) system (Waters Corp., Milford, MA, USA) couple to a triple quadrupole mass spectrometer (API 4000, AB Sciex, Foster City, CA, USA) was used for the analysis ([99]).
Blood concentration time data were analyzed by Non-Compartmental PK analysis using Phoenix WinNonlin software (Certara, NY, US) to calculate PK parameters. […]
mg/kg per day for four consecutive days. Treatment started at day 3 and finished at day 6 after infection. In all cases, parasitemia was assessed in samples from peripheral blood obtained at days 3, 4, 5, 6, and 7 after infection. Fresh samples of peripheral blood from P. falciparum-infected mice were stained with TER-119-Phycoerythrine (marker of murine erythrocytes) and SYTO-16 (nucleic acid dye) and then analyzed by flow cytometry (FACSCalibur, BD). Efficacy was determined using flow cytometry data as the percentage of Parasitemia reduction compared with […]
blood samples obtained during the 23 h period after the first dose in all mice. Peripheral blood samples (15 µL) were taken at frequent intervals, mixed with 30 µL of H2O milli Q and immediately frozen on dry ice. The frozen samples were stored at −80 °C until analysis. Vehicle-treated mice experienced the same blood-sampling regimen (table S9, S10).
Bioanalysis and pharmacokinetics analysis: LC-MS
Bioanalysis of in vivo samples: Sample pretreatment Before the analysis 15ul of blood samples were defrost at ambient temperature and mixture with 200ul of ACN:MeOH (80:20). After protein precipitation samples were filtered by 0.45um filter plate (Multiscreen Solvinert 0.45um FTPE, Millipore). The 2ul TFA (Trifluoroacetic acid, sigmaAldrich) were added to each filtered sample in order to derivatize the compound to formamide analogue. This process occurs spontaneously.
LC-MS analysis An Acquity Ultra-Performance liquid chromatography (UPLC) system (Waters Corp., Milford, MA, USA) couple to a triple quadrupole mass spectrometer (API 4000™, AB Sciex, Foster City, CA, USA) was used for the analysis. The MS/MS transition was 311.340 / […]
The chromatographic separation was carried out at 0.4ml/min in a Acquity UPLC™ BEH C18 column (50x2.1 mm i.d., […]; Waters Corp.) at 40 °C with Acetonitrile (sigmaAldrich) and 0.1% formic acid as eluents.
Pharmacokinetic analysis Blood concentration time data were analyzed by Non-Compartmental PK analysis using Phoenix WinNonlin software (Certara NY, US) to calculate PK parameters. The maximum observed concentration (Cmax) and the time to reach it (Tmax), were determined. The area under concentration-time curve from dosing at time zero to the last measured concentration […]
time (AUClast) and the total area under concentration-time curve from time zero extrapolated to infinity (AUCinf), were calculated using a linear trapezoidal rule. […]

Setting [3] is: 50mg/kg oral, infected mice, individual mice.
The mark [4] stands for this setting: SCID, mouse, whole blood, po, 50 mg/kg, 50mg/kg oral, infected mice, Mean.
The mark [5] stands for this setting: SCID, mouse, whole blood, po, 50 mg/kg, 50mg/kg oral, infected mice, individual mice.

Usually IC50 stands for the concentration needed to halve the response being measured. What is called Cmax is the maximum level reached in the sampled fluid or tissue. As usually defined, the AUC(0-t) is the area under the concentration-time curve up to a stated or last time point. High values mean more exposure, low ones less exposure. Usually Tmax stands for the time from dosing to the highest level.

Read-outs that look alike come from different tables or passages of the source.

For the compound `[C-]#[N+][C@]1(C)CC[C@H]2[C@@H]([C@@H](C(C)C)CC[C@]2(C)[N+]#[C-])[C@H]1O` [MED6-189], the half-inhibitory concentration (IC50) is 0.136 ± 0.056 µM in data set [1], 9.6 µM with HeLa and 12 µM in the data set with THP1. Further, the “accumulation in blood (levels at 96 hrs)” value in data set [2] (50 mg/kg oral every 24h, four days) is “no accumulation”. In addition, the highest concentration (Cmax) in data set [2] (infected mice, individual mice 1 and 2) worked out at 8980 ng/mL; in data set [2] (SCID, mouse, whole blood, po, 50 mg/kg, infected mice, Mean, read-out: Cmax), 7920 ng/mL; in data set [2] (SCID, mouse, whole blood, po, 50 mg/kg, infected mice, individual mice 1 and 2, read-out: Cmax), 6860 ng/mL. Moreover, the Tlast is 24 h in data set [2] (50mg/kg oral, infected mice, Mean) and 24 h in data set [2] (setting [3]). In data set [2] (setting [3]), this compound showed an AUCINF_obs of 115.877 µg·h/mL. Further, the AUClast in data set [2] (setting [3]) was 114.617 µg·h/mL. The figures for the AUC(0-t) in data set [2] (setting [4]) and in data set [2] (setting [5]) were 101 µg·h/mL and 86.8 µg·h/mL, respectively. In addition, the AUC(0-inf) came to 105 µg·h/mL in data set [2] (setting [4]) and 94.1 µg·h/mL in data set [2] (setting [5]). In data set [2] (SCID, mouse, whole blood, 50mg/kg oral, infected mice, individual mice), the Tmax amounted to 7 h.
